One test has as its system NLRP3 inflammasome. The experiment in a line: IL-1β release in BMDCs (ELISA). It counts as cell-based, mouse. Conditions: supernatant. How it is done: FIGS. 5A-5C. TLR7 agonist-silica nanoshells conjugates generate high level of IL-1p in BMDCs. 75-2500 nM of TLR7 agonist-silcia shells conjugates were incubated with BMDCs for 24 hours at 37° C., 5% CO2. IL-1β level in supernatant was determined by ELISA. Mechanism figure reference: He, Y. et. al. (2016).
FIG. 24. In vitro IL-1β release of NS-TLR and mixture in BMDCs. 75-2500 nM of NS-TLR (high coating density) and mixture of silica nanoshells and 1V209 were incubated with wild type BMDCs for 18 hours. IL-1p cytokine was measured via ELISA. Dose response curves are in means SD. Data were analyzed by t test.
IL-1β secretion by dendritic cells is mandatory for T cell priming (Ghiringhelli et al., 2009). A two-pronged pathway has been proposed for NLRP3 inflammasome activation in macrophages and DCs. In this model, the first signal is triggered by microbial or endogenous molecules that generate NLRP3 and pro-IL-1p expression through activation of NF-κB; the second signal is triggered by ATP, pore-forming toxins, viral RNA and particulate matters such as silica nanoparticles. […] Resting DCs/macrophages have insufficient NLRP3 in the cells, and therefore, incubating with NLRP3 activator (silica nanoshells) results in no or minimal IL-1β.

In another test the test system is CT26 tumors. Description: CT26 tumor model, intratumoral monotherapy (tumor growth, CD3 IHC, IFN-γ RT-qPCR). It counts as in vivo, mouse. To be noted: single agent. From the text:
FIGS. 13A-13F. Tumor growth regression in mice treated with NS-TLR7a. BALB/c mice were implanted with CT26 cells and treatment began when tumors reached 100 mm^3. Mice (n=5/group) were randomized and treated with vehicle (PBS), silica NS, unconjugated agonist (TLR7a), or NS-TLR7a every other day. Tumor tissues were collected on day 10 post treatment for analysis. A) Protocol of treatment. B) Average tumor growth curves per treatment. (C and D) Immunohistochemistry (IHC) images of CD3^+ cells infiltrating into the tumor environments for (C) unconjugated TLR7a or (D) TLR7a-NS conjugates locally injected tumor. (E and F) IFN-γ gene expression level (E) and (F) quantified CD3^+ T cells (F) in tumor samples for vehicle, NS, TLR7a, and TLR7a-NS conjugate treated groups (n=4-5/group). Representative IHC images were shown. […]
Animals and Tumor Model: Mouse colon cancer cell line CT26 (Cat. No. CRL-2638) was purchased from American Type Culture Collection (ATCC). […] Tumor volume was determined by caliper with the formula: volume (mm^3)=(width×width×length)/2. […]
To test the anti-tumor effects of TLR7 with or without conjugation onto silica nanoshells in vivo, silica NS, unconjugated TLR7a (TLR7 agonist), and NS-TLR7a were tested in a CT26 mouse tumor model. […] On day 8, tumors were harvested for immunohistochemistry (IHC) analysis and CD3^+ cells were assessed as T cell population in the tumor microenvironment.

Test [1] concerns the target T1, TLR7 (Mus musculus, UniProt P58681).
T1 construct: endogenous in cells; host or cells: mouse bone marrow-derived dendritic cells (BMDCs)
T1 sequence (P58681 27-1050): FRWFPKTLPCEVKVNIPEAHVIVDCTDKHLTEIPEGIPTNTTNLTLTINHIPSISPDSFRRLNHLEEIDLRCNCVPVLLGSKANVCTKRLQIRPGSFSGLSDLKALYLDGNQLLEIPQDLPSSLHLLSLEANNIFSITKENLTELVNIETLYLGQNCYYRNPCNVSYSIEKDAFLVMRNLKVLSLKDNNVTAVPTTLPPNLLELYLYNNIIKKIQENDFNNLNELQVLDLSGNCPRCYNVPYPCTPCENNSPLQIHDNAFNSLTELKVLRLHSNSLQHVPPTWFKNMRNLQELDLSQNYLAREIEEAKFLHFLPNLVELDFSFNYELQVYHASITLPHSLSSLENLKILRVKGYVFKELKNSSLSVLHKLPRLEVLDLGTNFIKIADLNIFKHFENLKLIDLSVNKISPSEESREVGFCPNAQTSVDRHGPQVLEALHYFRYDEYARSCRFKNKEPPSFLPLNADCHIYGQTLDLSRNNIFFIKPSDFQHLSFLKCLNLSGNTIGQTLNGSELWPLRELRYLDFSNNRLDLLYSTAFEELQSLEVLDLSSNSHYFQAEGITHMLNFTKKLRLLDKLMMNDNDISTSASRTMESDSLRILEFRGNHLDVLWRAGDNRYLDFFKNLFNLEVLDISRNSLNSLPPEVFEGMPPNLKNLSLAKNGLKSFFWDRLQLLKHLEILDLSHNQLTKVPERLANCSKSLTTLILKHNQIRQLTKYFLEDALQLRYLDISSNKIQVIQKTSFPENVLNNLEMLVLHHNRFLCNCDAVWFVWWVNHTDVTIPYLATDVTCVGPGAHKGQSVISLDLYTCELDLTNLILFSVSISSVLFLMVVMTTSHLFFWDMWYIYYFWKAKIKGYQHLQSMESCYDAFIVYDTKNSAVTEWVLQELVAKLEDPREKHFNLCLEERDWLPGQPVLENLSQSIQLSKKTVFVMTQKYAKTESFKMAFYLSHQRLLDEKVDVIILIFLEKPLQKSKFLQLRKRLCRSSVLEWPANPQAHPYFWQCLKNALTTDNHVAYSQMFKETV
The experiment in a line: IL-12 release in mouse BMDCs (ELISA). The class given is cell-based. How it is done:
(§1) FIGS. 4A-4E. […] Mouse BMDCs or human PBMCs were plated and incubated with serially diluted 1V209 nanoshells conjugates at different coating densities (high, medium, or low density conjugates, unconjugated TLR7 ligand 1V209, or silica nanoshells for 18 hours. Control cells were treated with 1 μM resiquimod or 0.5% DMSO as vehicle. IL-6 (A) and IL-12 (B) released in the culture supernatants of mouse BMDCs were measured using ELISA. (C) Cytotoxicity in BMDCs was measured by MTT assay. (D) IL-6 released in the culture supernatants of human PBMCs. (E) IL-6 released in the culture supernatants BMDCs isolated from TLR7 deficient mice.
FIG. 23. In vitro cytokine induction of NS-TLR in murine cells. Mouse BMDCs (10^5 cells) were plated and incubated with serially diluted 100 nm NS-TLR at different coating densities for 18 hours. IL-12 released in the culture supernatants of mouse BMDCs incubated with unconjugated 1V209, high, medium, low coating density NS-TLR, and silica shells. IL-12 cytokine was measured via ELISA. All data are representative dose response curves in mean±SD with triplicate technical repeats. Data are representative of three independent experiments showing similar results. Data were analyzed by two-way ANOVA with Tukey's post hoc analysis.
(§2) The correlation between TLR7 ligands density and cytokines induction level was further investigated. To test this, mouse bone marrow-derived dendritic cells (BMDCs) or human peripheral blood mononuclear cells (PBMCs) were treated with unconjugated 1V209, SiO2 nanoshells, or 1V209-nanoshell conjugates with different coating densities (high, medium, or low coating densities). The levels of IL-6 and IL-12 release in the culture supernatant were measured. […] Different formula of conjugates were also tested their cytotoxicity in BMDCs. […] To determine whether the immune potency of 1V209-nanoshell conjugates was TLR7 specific, conjugates was performed in TLR7 deficient BMDCs. […] Thus, high coating of TLR7 agonists silica shells are denoted as 1v209-NS conjugates in the following description.
For orientation: ELISA stands for enzyme-linked immunosorbent assay.

Test [2] has as its target T1, TLR7. Description: IL-6 release in mouse BMDCs (ELISA). It counts as cell-based. Here is the method: as §1, §2
Where [3] appears, read: BMDCs, 18 hours, ELISA, means ± SD.

As usually defined, the EC50 is the concentration giving half of the maximal effect. A higher EC50 goes with a need for much substance.

For the compound `COCCOc1nc(N)c2[nH]c(=O)n(Cc3ccc(C(=O)O)cc3)c2n1` [1V209, 4-[6-Amino-2-(2-methoxyethoxy)-8-oxo-7H-purin-9(8H)-yl]methylbenzoic acid], the IL-1β level result in the test with NLRP3 inflammasome is “very low levels or zero”. Also, in the test with CT26 tumors, the tumor remission result is “did not result in tumor remission”. For the same compound, at TLR7 [1], the “Emax, IL-12, normalized to unconjugated 1V209 (=1X)” value was determined as 1 ×. At TLR7 [1] (setting [3]), the midpoint of the response, the EC50, lay at 883 ± 193 nM and the “Emax, IL-12” value came to 3.2 ± 2.3 ng/mL. Further, the “Emax, IL-6, normalized to unconjugated 1V209 (=1X)” value at TLR7 [2] was determined as 1 ×. Besides, at TLR7 [2] (setting [3]), it took 1080 ± 101 nM to reach a half-maximal effect (EC50) and the “Emax, IL-6” value was found to be 9.9 ± 1.0 ng/mL.

(Values after patent US20210038742A1, “CONJUGATION OF TLR7 AGONIST TO NANO-MATERIALS ENHANCES THE AGONISTIC ACTIVITY” (priority 2019, published 2021).)
